Test results taken from patent US20230181657A1, “NOVEL LACTIC ACID BACTERIA AND USE THEREOF” (UNIVERSITY- INDUSTRY COOPERATION GROUP OF KYUNG HEE …, priority 2018, published 2023).

What was measured:
Assay type in all cases: in vivo
[1] = system: animal model with osteoporosis (C57BL/6 mice with removed ovaries); experiment: Osteoporosis indices in blood (AP activity, Ca, P, osteocalcin) of ovariectomized mice; conditions: bacteria 1×10^9 CFU orally for five weeks
Method: (§1) An experiment was performed by using six C57BL/6 mice (female, 21-23 g and 6 weeks old) per group after being acclimated in a laboratory for one week. After the mice were anesthetized with isoflurane, the ovaries were removed therefrom to create an animal model with osteoporosis. From one week after ovarian removal, Lactobacillus plantarum NK3, Bifidobacterium longum NK49, a 1:1 mixture thereof, or a 4:1 mixture thereof (a ratio of LP:BL is 4:1 and the same as below), which is a novel lactic acid bacterium, was orally administered in a daily amount of 1×10^9 CFU for six days a week for five weeks. In addition, 17β-estradiol (PC) was intraperitoneally administered at 10 μg/kg/day to the experimental animals of the positive control group, and the sham group and the experimental group with removed ovaries were orally dosed with physiological saline solution instead of drugs.
On the day after the administration of lactic acid bacteria was completed, the experimental animals were sacrificed, and then blood, thighbone, colon, womb, and liver were separated therefrom so as to measure osteoporosis indices.
Osteocalcin in blood was measured with R&D system ELISA Kit (Minneapolis, Minn., USA); Ca and P were measured with ASAN Ca-Lq Reagents and ASAN Pi-Lq Reagents of Asan Pharmaceutical Co., Ltd, respectively; and alkaline phosphatase (AP) activity was measured with Alkaline phosphatase activity colorimetric assay kit (Sigma, USA).

SREBP-1c = SREBP-1c expression in liver by qPCR, ovariectomized obesity model; conditions: liver mRNA, qPCR in comparison with β-actin; mice with removed ovaries; bacteria 1×10^9 CFU orally, PC 10 μg/kg/day intraperitoneally; Nor 1.0 ± 0.1, Con 4.5 ± 0.5
Method: as §1, with “week as described above in (1) of Example 2.” for “week.”, “isoflurane and” for “isoflurane,”, “therefrom, the resulting mice were raised for six weeks so as” for “therefrom”, “obesity, showing a significant weight gain.” for “osteoporosis.”, “thereof,” for “thereof (a ratio of LP:BL is 4:1 and the same as below),”, “drugs. […] The body weight was measured once a week. An expression of sterol regulatory element-binding transcription factor 1c (SREBP-1c) and peroxisome proliferator-activated receptor gamma coactivator 1-alpha (PGC-1α) was measured by using a quantitative reverse transcription polymerase chain reaction (qPCR). […] The amount of final expressed genes was calculated in comparison with β-actin.” for “drugs.”

PGC-1α = PGC-1α expression in liver by qPCR, ovariectomized obesity model; conditions: liver mRNA, qPCR in comparison with β-actin; mice with removed ovaries; bacteria 1×10^9 CFU orally, PC 10 μg/kg/day intraperitoneally; Nor 1.0 ± 0.1, Con 0.6 ± 0.2
Method: as §1, with “week as described above in (1) of Example 2.” for “week.”, “isoflurane and” for “isoflurane,”, “therefrom, the resulting mice were raised for six weeks so as” for “therefrom”, “obesity, showing a significant weight gain.” for “osteoporosis.”, “thereof,” for “thereof (a ratio of LP:BL is 4:1 and the same as below),”, “drugs. […] The body weight was measured once a week. An expression of sterol regulatory element-binding transcription factor 1c (SREBP-1c) and peroxisome proliferator-activated receptor gamma coactivator 1-alpha (PGC-1α) was measured by using a quantitative reverse transcription polymerase chain reaction (qPCR). […] The amount of final expressed genes was calculated in comparison with β-actin.” for “drugs.”

**Q.** With `C[C@]12CC[C@@H]3c4ccc(O)cc4CC[C@H]3[C@@H]1CC[C@@H]2O` [PC, 17β-estradiol] as the compound, how does the Osteocalcin in blood ([1]; PC 10 μg/kg/day intraperitoneally, Con 1.85 ± 0.32) read?
**A.** The Osteocalcin in blood was 1.53 ± 0.15 µg/L.

**Q.** What about the Ca in blood ([1]; PC 10 μg/kg/day intraperitoneally, Con 6.4 ± 0.4) of the same compound?
**A.** Its Ca in blood is 6.2 ± 0.2 mg/dL.

**Q.** What about the P in blood ([1]; PC 10 μg/kg/day intraperitoneally, Con 12.5 ± 1.5) of the same compound?
**A.** Its P in blood is 12.1 ± 1.1 mg/dL.

**Q.** And the “AP (alkaline phosphatase activity in blood)” value ([1]; PC 17β-estradiol 10 μg/kg/day intraperitoneally, Con 282.2 ± 10.3)?
**A.** Its value is 220.6 ± 10.3 IU/L.

**Q.** And the SREBP-1c expression (SREBP-1c)?
**A.** Its SREBP-1c expression is 2.7 ± 0.3.

**Q.** What about the PGC-1α expression (PGC-1α) of the same compound?
**A.** The PGC-1α expression was 0.8 ± 0.2.
